From patent publication US11938198B2, “Treatment of heart disease by disruption of the anchoring of PP2A” (University of Miami, priority 2019, dated 2024)

Legend:
[1] = system: mAKAP-associated phosphatase (PP2A); test: Phosphatase activity of mAKAP complexes immunoprecipitated from adult rat heart extracts ([32P]histone); assay type: biochemical; settings: 50 μM CPT-cAMP, 5 min pre-incubation
Procedure: (§1) For immunoprecipitation of endogenous, native mAKAP complexes, adult rat hearts (Pel-Freeze) were homogenized in 10 ml HSE buffer. After centrifugation at 15,000×g for 25 minutes, clarified extracts were immunoprecipitated as above.
(§2) Phosphatase Assay—Phosphatase activity was measured according to the method of Ahn et al. using ^32P-labeled histone as substrate (Ahn et al. 2007). Histone was radiolabeled in reactions containing 250 mM MOPS, pH 7.4, 2.5 mM MgAc, 100 mM β-mercaptoethanol, purified PKA catalytic subunit, 1 μM ATP, 20 μM histone, and 1 mCi [γ-^32P]ATP (6000 Ci/mmol). The reaction was terminated by the addition of 50% TCA, and [^32P]histone was purified from free radionucleotide by centrifugation. The [^32P]histone pellet was washed with 1 ml of ether/ethanol/HCL (4:1:0.1) once and 1 ml of ether/ethanol (4:1) three times. The substrate was then suspended in 200 μl PP2A assay buffer (25 mM Tris, pH 7.4, 1 mM DTT, and 10 mM MgCl2) before precipitation with 50% TCA. After repeated washing, the [^32P]histone was suspended in 200 μl PP2A buffer.
(§3) To measure phosphatase activity, immunoprecipitated protein complexes were washed twice in HSE buffer and once in PP2A reaction buffer. […] TCA supernatants containing released ^32PO4 were measured by scintillation counting.

PDE4D3 Ser-54 = PDE4D3 Ser-54 phosphorylation in mAKAP immunoprecipitates from transfected HEK293 cells (phospho-specific immunoblot); assay type: cell-based; settings: HEK293 cells over-expressing mAKAP and PDE4D3; OA or 500 μM CsA for 30 min
mAKAP-bound PDE4D3 = test: PDE activity associated with mAKAP immunoprecipitates from transfected HEK293 cells ([3H]cAMP); assay type: cell-based; settings: 300 μM OA 30 min then 5 μM Fsk 10 min
Procedure: Immunoprecipitation—HEK293 cells were used in this project as a heterologous system lacking mAKAP in which the various wildtype and mutant proteins could be easily expressed. Cells cultured on 60 mm plates were transfected at 50%-70% confluency by the calcium phosphate method, using 6 μg of each DNA construct per plate. Cells were harvested 24 hours after transfection in 0.5 ml HSE buffer (HEPES, pH 7.4, 150 mM NaCl, 5 mM EDTA, 1% Triton X-100 and protease inhibitors). Supernatants were incubated with 3 μg antibody and 15 μl prewashed protein A- or G-agarose beads. Following overnight incubation at 4° C., the immunoprecipitates were washed three times with the same buffer. Bound proteins were analyzed by immunoblotting. […]
As phosphorylation of PDE4D3 Ser-54 increases phosphodiesterase activity 2 fold (Sette and Conti 1996), whether OA treatment would also increase the activity of mAKAP-bound PDE4D3 was tested. mAKAP complexes were immunoprecipitated from transfected HEK293 cells and assayed for associated phosphodiesterase activity (FIG. 8B). mAKAP-associated phosphodiesterase activity in untreated cells was detected only when mAKAP was co-expressed with PDE4D3 (FIG. 8B, bar 1, and data not shown), consistent with a previous observation that PDE4D3 accounts for all of the phosphodiesterase activity associated with mAKAP in cardiac myocytes (Dodge et al. 2001).

[2] = system: mAKAP-associated phosphodiesterase; test: PDE activity of native mAKAP complexes immunoprecipitated from adult rat heart extracts; assay type: biochemical
Procedure: as §1
PDE assay—PDE activity associated with immunoprecipitated protein complexes was assayed according to the method by Beavo et al. (Beavo, Bechtel, and Krebs 1974). Samples were assayed in 45 μl PDE buffer A (100 mM MOPS, pH 7.5, 4 mM EGTA, 1.0 mg/ml bovine serum albumin) and 50 μl PDE buffer B [100 mM MOPS, pH 7.5, 75 mM MgAc, 1 μM cAMP and 100,000 cpm [^3H]cAMP (Dupont, NEN)]. Inhibitors were included as indicated.

[3] = biological target: T1, mAKAP-associated phosphatase (PP2A) (Rattus norvegicus, UniProt P63331); test: Phosphatase activity of mAKAP complexes immunoprecipitated from adult rat heart extracts ([32P]histone); assay type: biochemical; settings: 10 nM
T1 construct: For immunoprecipitation of endogenous, native mAKAP complexes; tissue Pel-Freeze; host or cells: adult rat heart
Procedure: as §1, §2, §3

SRF Ser^103 [4] = test: SRF Ser103 phosphorylation in neonatal rat ventricular myocytes (NRVM); assay type: cell-based; settings: 1 hour, 1 μM OA or 1 μg/ml CsA
Procedure: (§4) Neonatal Rat Ventricular Myocyte Culture: 1-3 day old Sprague-Dawley rats were decapitated, and the excised hearts placed in 1× ADS Buffer (116 mM NaCl, 20 mM HEPES, 1 mM NaH2PO4, 5.5 mM glucose, 5.4 mM KCl, 0.8 mM MgSO4, pH 7.35). The atria were carefully removed and the blood washed away. The ventricles were minced and incubated with 15 mL 1× ADS Buffer containing 3.3 mg type II collagenase (Worthington, 230 U/mg) and 9 mg Pancreatin (Sigma) at 37° C. with gentle shaking. After 15 minutes, the dissociated cardiac myocytes were separated by centrifugation at 50 g for 1 minute, resuspended in 4 mL horse serum and incubated at 37° C. with occasional agitation. The steps for enzymatic digestion and isolation of myocytes were repeated 10-12 times to maximize yield. The myocytes were pooled and spun down again at 50 g for 2 minutes and resuspended in Maintenance Medium (DMEM:M199, 4:1) supplemented with 10% horse serum and 5% fetal bovine serum. To remove any contaminating fibroblasts, the cells were pre-plated for 1 hour before plating on gelatin-coated tissue culture plastic ware. This procedure yields >90% pure cardiac myocytes. After 1 day culture, the media was changed to maintenance medium containing 0.1 mM bromodeoxyuridine to suppress fibroblast growth. […]

SRF Ser^103 [5] = test: SRF Ser103 phosphorylation in adult rat ventricular myocytes (ARVM); assay type: cell-based; settings: 10 μM Iso 1 day
Procedure: Adult rat ventricular myocyte isolation and culture: 2-3 month old rats were anesthetized using Ketamine (80-100 mg/kg) and Xylazine (5-10 mg/kg) IP following 1000 U heparinization for cardiac excision. The heart was transferred immediately into chilled perfusion buffer (NaCl 120 mM, KCl 5.4 mM, Na2HPO4·7H2O 1.2 mM, NaHCO320.0 mM, MgCl2·6H2O 1.6 mM, Taurine 5 mM, Glucose 5.6 mM, 2,3-Butanedione monoxime 10 mM) pre-equilibrated with 95% O2 and 5% CO2. After removal of extraneous tissue, the heart was attached via the aorta to a Harvard Langendorff apparatus cannula. Ca^2+-free perfusion was used to flush out remaining blood with a constant rate of 8-10 mL/min at 37° C. The heart was then digested through circulatory perfusion with 50 mL perfusion buffer containing 125 mg type II collagenase (Worthington, 245 U/mg), 0.1 mg protease (Sigma type XIV) and 0.1% BSA. After perfusion, the atria were removed and the ventricular myocytes dissociated by slicing and repetitive pipetting. The debris was filtered by a 200 μm nylon mesh, and the myocytes collected by one minute centrifugation at 50 g. […]

[6] = system: adult rat ventricular myocytes (ARVM); test: ARVM morphologic hypertrophy (cell width and length by immunocytochemistry); assay type: cell-based; settings: adenoviral expression; for Iso-induced ARVM hypertrophy: 10 μM Iso 24 hours
Procedure: Adult rat ventricular myocyte isolation and culture: 2-3 month old rats were anesthetized using Ketamine (80-100 mg/kg) and Xylazine (5-10 mg/kg) IP following 1000 U heparinization for cardiac excision. The heart was transferred immediately into chilled perfusion buffer (NaCl 120 mM, KCl 5.4 mM, Na2HPO4·7H2O 1.2 mM, NaHCO320.0 mM, MgCl2·6H2O 1.6 mM, Taurine 5 mM, Glucose 5.6 mM, 2,3-Butanedione monoxime 10 mM) pre-equilibrated with 95% O2 and 5% CO2. After removal of extraneous tissue, the heart was attached via the aorta to a Harvard Langendorff apparatus cannula. Ca^2+-free perfusion was used to flush out remaining blood with a constant rate of 8-10 mL/min at 37° C. The heart was then digested through circulatory perfusion with 50 mL perfusion buffer containing 125 mg type II collagenase (Worthington, 245 U/mg), 0.1 mg protease (Sigma type XIV) and 0.1% BSA. After perfusion, the atria were removed and the ventricular myocytes dissociated by slicing and repetitive pipetting. The debris was filtered by a 200 μm nylon mesh, and the myocytes collected by one minute centrifugation at 50 g. Ca^2+ concentration in the buffer was gradually recovered to 1.8 mM and the myocytes were resuspended in ACCT medium (M199 Medium (Invitrogen 11150-059), Creatine 5 mM, L-carnitine 2 mM, Taurine 5 mM, HEPES 25 mM, 2,3-Butanedione monoxime 10 mM, BSA 0.2% and 1×Insulin-Transferrin-Selenium Supplement) and plated on 10 μg/ml laminin pre-coated dishes. Cells were washed with ACCT medium 1.5 hours after plating and subjected to adenoviral infection or siRNA transfection, in which 100-200 Multiplicity of Infection (MOI) of adenovirus and 100 nmol/L siRNA mixed with Dharmafect1 (Dharmacon) were used, respectively. Adrenergic agonists were added the next day, with biochemical assay and morphological measurement performed after 24 hours of stimulation.
Immunocytochemistry: Myocytes on coverslips were fixed in 3.7% formaldehyde in PBS for 1 hour, permeabilized with 0.3% Triton X-100, and blocked in PBS containing 0.2% BSA and 1% horse serum. The slides were then sequentially incubated for 1 hour with primary and Alexa fluorescent dye-conjugated specific-secondary antibodies (Invitrogen, 1:1000) diluted in blocking buffer. The slips were washed three times with blocking buffer. 1 μg/mL Hoechst 33258 was included in the last wash stop to label nuclei. Slides were sealed in SlowFade Gold antifade buffer (Invitrogen, S36938) for fluorescent microscopy. Wide-field images were acquired using a Leica DM4000 Microscope.

mAKAPβ-PP2A association = test: Co-immunoprecipitation of endogenous mAKAPβ-PP2A in myocytes; assay type: cell-based, rat; settings: NRVM infected with adenovirus
Procedure: as §4

T1 sequence (P63331 whole entry): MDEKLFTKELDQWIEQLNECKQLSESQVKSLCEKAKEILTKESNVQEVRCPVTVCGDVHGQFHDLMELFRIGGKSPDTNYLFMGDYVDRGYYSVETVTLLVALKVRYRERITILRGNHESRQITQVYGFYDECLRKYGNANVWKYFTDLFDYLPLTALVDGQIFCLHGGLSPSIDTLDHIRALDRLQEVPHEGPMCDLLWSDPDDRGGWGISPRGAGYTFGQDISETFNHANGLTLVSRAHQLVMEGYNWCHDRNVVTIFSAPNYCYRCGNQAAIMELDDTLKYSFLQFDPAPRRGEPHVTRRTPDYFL

For `Nc1ncnc2c1nc(Sc1ccc(Cl)cc1)n2[C@@H]1O[C@@H]2COP(=O)([O-])O[C@H]2[C@H]1O.[Na+]` [CPT-cAMP, 8-(4-chlorophenylthio)adenosine 3′,5′-cyclic monophosphate], the “increase of mAKAP-associated phosphatase activity” value [1] was 2.5 fold.

`C=C1[C@@H](O)[C@@H]2O[C@]3(CC[C@H](/C=C/[C@@H](C)[C@@H]4CC(C)=C[C@@]5(O[C@H](C[C@@](C)(O)C(=O)O)CC[C@H]5O)O4)O3)CC[C@H]2O[C@@H]1[C@@H](O)C[C@H](C)[C@H]1O[C@@]2(CCCCO2)CC[C@H]1C` [OA, okadaic acid] was tested, and the “baseline phosphorylation of PDE4D3 Ser-54” value (PDE4D3 Ser-54) was “increase in the baseline phosphorylation of PDE4D3 Ser-54”, the “mAKAP-bound PDE4D3 activity, Fsk and OA treatment together” value (mAKAP-bound PDE4D3) was “synergistically increased PDE4D3 activity” and the “increase in mAKAP-associated phosphodiesterase activity when PKA was also inhibited” value ([2]; 10 nM OA with 50 nM PKI) was 60%. For the same molecule, the “increase in mAKAP-associated phosphodiesterase activity” value ([2]; 10 nM OA, native complexes from adult rat heart) was 30%, the “inhibition of mAKAP-associated phosphatase activity” value [3] was “all immunoprecipitated phosphatase activity was inhibited” and the “baseline phosphorylation of SRF Ser^103” value (SRF Ser^103 [4]) was “promoted baseline phosphorylation of SRF Ser^103”.

B1: PBD: myc-tagged mAKAP aa 2134-2314 fragment, PP2A anchoring disruptor, expressed by adenovirus (protein)
chain: MEQKLISEEDLSPGMLTMSVTLSPLRSQTPLPPDAVDSGLDDKEDMDCFFEACVEDEPVNEEAGLPGALPNESAIEDGAEQKSEQKTASSPVLSDKTDLVPLSGLSPQKGADDAKEGDDVSHTSQGCAESTEPTTPSGKANAEGRSRMQGVSATPEENAASAKPKIQAFSLNAKQPKGKVAMRYPSPQTLTCKEKLVNFHEDRHSNMHR
modifications: myc-tagged rat mAKAP PBD
notes: myc-tagged mAKAP aa 2134-2314 fragment, PP2A anchoring disruptor, expressed by adenovirus
With B1 the “Iso-induced SRF Ser^103 phosphorylation” value (SRF Ser^103 [5]) was “potentiated the induction of SRF Ser^103 phosphorylation”, the “Iso-induced ARVM hypertrophy” value [6] was “attenuated the eccentric hypertrophy” and the “Iso-induced ARVM hypertrophy” value ([6]; listed as PDB) was “promoted ARVM concentric hypertrophy”. For the same molecule, the “PE-induced ARVM hypertrophy” value ([6]; 20 μM PE 24 hours) was “did not enhance nor diminish”, the “basal ARVM morphology” value ([6]; no drug) was “no effect” and the “endogenous mAKAPβ-PP2A association” value (mAKAPβ-PP2A association) was “competed endogenous mAKAPβ-PP2A association”.
